Measured values as given in paper PMC11915372, “Identification of a Series Containing a Pentafluorophenyl Moiety That Targets Pks13 to Inhibit Growth of Mycobacterium tuberculosis” (ACS Infectious Diseases, 2025).
Converted amounts (≈) assume the structure as drawn. Where two headings read alike, the source gives them in different places.

Columns and labels:
physchem [1] = format: physicochemical
HepG2 cells = assay: HepG2 cytotoxicity; conditions: Homo sapiens, HepG2, read-out: HepG2 inhibitory concentration (IC50)
Excerpt: Assays to establish HepG2 cytotoxicity, in vitro microsomal/hepatocyte metabolic stability, aqueous kinetic solubility, and in vivo pharmacokinetic profiles were all performed as previously described.[15],[35]−[37]

M. tuberculosis (H37Rv) = assay: microbe, parasite or virus in culture; format: cell-based, Mycobacterium tuberculosis; conditions: for MIC: Mycobacterium tuberculosis, H37RV
[2] = format: in vitro ADME, mouse; conditions: mouse; for Mouse Heps Cl: hepatocytes
physchem [3] = conditions: pH 7.4
[4] = format: in vitro ADME, mouse; conditions: for Microsomal Cli: CD1, mouse; for Mouse micro Cl: microsomes
M. tuberculosis H37Rv [5] = format: in vivo; conditions: C57BL/6J mice, oral dosing for 8 days from day 1 post-infection, qPCR
M. tuberculosis H37Rv [6] = format: cell-based, Mycobacterium tuberculosis
[7] = efficacy experiment at 20 times the oral PK dose
[8] = mouse, in vivo
[9] = human liver microsomes
in vivo = conditions: C57BL/6J, mouse, po
[10] = tested on: H37Rv growing inside J774 macrophages; assay: Intramacrophage efficacy; format: cell-based, Mycobacterium tuberculosis; conditions: 7 days of treatment
in vitro = conditions: plasma
[11] = tested on: mycolic acid biosynthesis; conditions: with accumulation of mycolic acid precursors; cited from earlier work
[12] = pH 7.4, aqueous buffer, kinetic from dmso stock
[13] = read-out: Wk2_7H9/DPPC/ casitone/ Tyloxapol MIC
[14] = read-out: Wk2_ 7H9/DPPC/ cholesterol/BSA/ Tyloxapol MIC
[15] = read-out: Wk2_7H9/glucose/ BSA/Tyloxapol MIC
[16] = read-out: Wk2_7H9/glucose/ casitone/ Tyloxapol MIC

Compound | solubility kinetic (physchem [1]; [12]) | solubility kinetic (physchem [1]; read-out: Kin. Sol) | IC50 (HepG2 cells) | MIC (M. tuberculosis (H37Rv); read-out: H37Rv MIC A) | MIC (M. tuberculosis (H37Rv); read-out: H37Rv MIC B) | MIC (M. tuberculosis (H37Rv); [13]) | MIC (M. tuberculosis (H37Rv); [14]) | MIC (M. tuberculosis (H37Rv); [15]) | MIC (M. tuberculosis (H37Rv); [16]) | Hepatocyte Cli [2] | Mouse Heps Cl [2] | chromatographic logD (physchem [3]) | Microsomal Cli [4] | Mouse micro Cl [4] | further results
Cc1nc(C(=O)O)c(NC(=O)c2c(F)c(F)c(F)c(F)c2F)o1 [Compound 38, Cc1nc(c(o1)NC(=O)c1c(c(c(c(c1F)F)F)F)F)C(=O)O] | 250 µM (≈ 84 µg/mL) | 250 µM (≈ 84 µg/mL) | > 100 µM | > 50 µM | > 50 µM | 5.4 µM (≈ 1.82 µg/mL) | > 50 µM | 43 µM (≈ 14.5 µg/mL) | 7.7 µM (≈ 2.59 µg/mL) | 1.3 mL/min/g | 1.3 mL/min/g | 0.78 | <0.5 mL/min/g | <0.5 mL/min/g | 
CC(=O)c1nc(C)oc1NC(=O)c1c(F)c(F)c(F)c(F)c1F [Compound 39, CC(=O)c1nc(oc1NC(=O)c1c(c(c(c(c1F)F)F)F)F)C] | 241 µM (≈ 80.5 µg/mL) | 241 µM (≈ 80.5 µg/mL) | > 100 µM | 1.2 µM (≈ 0.401 µg/mL) | 3.1 µM (≈ 1.04 µg/mL) | 1.2 µM (≈ 0.401 µg/mL) | 3.1 µM (≈ 1.04 µg/mL) | 3.1 µM (≈ 1.04 µg/mL) | 1.2 µM (≈ 0.401 µg/mL) | 8.6 mL/min/g | 8.6 mL/min/g | 1.2 | <0.5 mL/min/g | <0.5 mL/min/g | 
Cc1nc(C(=O)N(C)C)c(NC(=O)c2c(F)c(F)c(F)c(F)c2F)o1 [Compound 40, CN(C)C(=O)c1nc(oc1NC(=O)c1c(c(c(c(c1F)F)F)F)F)C] | 242 µM (≈ 87.9 µg/mL) | 242 µM (≈ 87.9 µg/mL) | > 100 µM | 12.5 µM (≈ 4.54 µg/mL) | 19 µM (≈ 6.9 µg/mL) | 12.5 µM (≈ 4.54 µg/mL) | 19 µM (≈ 6.9 µg/mL) | 19 µM (≈ 6.9 µg/mL) | 9.4 µM (≈ 3.41 µg/mL) | 7.3 mL/min/g | 7.3 mL/min/g | 1.4 | 0.846 mL/min/g | 0.85 mL/min/g | 
Cc1nc(-c2ncco2)c(NC(=O)c2c(F)c(F)c(F)c(F)c2F)o1 [Compound 41, Cc1nc(c(o1)NC(=O)c1c(c(c(c(c1F)F)F)F)F)-c1ncco1] | 234 µM (≈ 84.1 µg/mL) | 234 µM (≈ 84.1 µg/mL) | > 100 µM | 0.4 µM (≈ 0.144 µg/mL) | 1.2 µM (≈ 0.431 µg/mL) | 0.4 µM (≈ 0.144 µg/mL) | 1.2 µM (≈ 0.431 µg/mL) | 1.2 µM (≈ 0.431 µg/mL) | 0.4 µM (≈ 0.144 µg/mL) | 12 mL/min/g | 12 mL/min/g | 1.7 | 0.5 mL/min/g | 0.51 mL/min/g | 
Cc1nnc(-c2nc(C)oc2NC(=O)c2c(F)c(F)c(F)c(F)c2F)o1 [Compound 42, Cc1nnc(o1)-c1nc(oc1NC(=O)c1c(c(c(c(c1F)F)F)F)F)C] | 174 µM (≈ 65.1 µg/mL) | 174 µM (≈ 65.1 µg/mL) | > 100 µM | 2.3 µM (≈ 0.861 µg/mL) | 6.3 µM (≈ 2.36 µg/mL) | 2.3 µM (≈ 0.861 µg/mL) | 6.3 µM (≈ 2.36 µg/mL) | 4.7 µM (≈ 1.76 µg/mL) | 2.3 µM (≈ 0.861 µg/mL) | 2.5 mL/min/g | 2.5 mL/min/g | 1.1 | <0.5 mL/min/g | <0.5 mL/min/g | loss of MIC potency (M. tuberculosis (H37Rv); relative to comparator of the series (21 vs thiophenes; 42 vs 24)): 10 fold
Cc1noc(-c2nc(C)oc2NC(=O)c2c(F)c(F)c(F)c(F)c2F)n1 [Compound 43, Cc1noc(n1)-c1nc(oc1NC(=O)c1c(c(c(c(c1F)F)F)F)F)C] | 196 µM (≈ 73.3 µg/mL) | 196 µM (≈ 73.3 µg/mL) | > 100 µM | 0.8 µM (≈ 0.299 µg/mL) | 1.8 µM (≈ 0.674 µg/mL) | 0.8 µM (≈ 0.299 µg/mL) | 1.8 µM (≈ 0.674 µg/mL) | 1.8 µM (≈ 0.674 µg/mL) | 0.7 µM (≈ 0.262 µg/mL) | 3.4 mL/min/g | 3.4 mL/min/g | 1.2 | <0.5 mL/min/g | <0.5 mL/min/g | reduction in bacterial DNA in lungs compared to the untreated control (M. tuberculosis H37Rv [5]): no reduction in DNA levels; CFU reduction relative to input bacterial counts (M. tuberculosis H37Rv [6]; treatment for 3 days): ~1 log units; CFU reduction relative to input bacterial counts (M. tuberculosis H37Rv [6]; treatment for 7 days): ~2 log units; increase of Cmax in the animal efficacy study versus oral PK study [7]: < 3 fold; bioavailability [8]: very good; clearance [8]: very good; half-life [8]: moderate; volume of distribution [8]: limited; parental material remaining ([9]; after 90 min, glutathione/NADPH): 57%; AUC(0-t) (in vivo): 167 µg·h/mL; Cmax (in vivo): 30000 ng/mL; concentration required to exert a cidal effect [10]: 10 µM; fraction unbound (in vitro): 0.03
COc1c(N2C[C@@H]3CCCN[C@@H]3C2)c(F)cc2c(=O)c(C(=O)O)cn(C3CC3)c12 [Moxifloxacin, reference compound] |  |  |  |  |  |  |  |  |  |  |  |  |  |  | reduction in bacterial DNA in lungs compared to the untreated control (M. tuberculosis H37Rv [5]): ~3 log
COC(=O)c1c(NC(=O)c2c(F)c(F)c(F)c(F)c2F)sc2c1CCCCC2 [TP2, reference compound] |  |  | 13 µM | 0.11 µM (≈ 0.0461 µg/mL) | 1.2 µM (≈ 0.503 µg/mL) |  |  |  |  |  | 43.2 mLmin/g | 4.6 |  | 15 mLmin/g | solubility kinetic (physchem [1]; water, kinetic from dmso stock): 0.2 µM (≈ 0.0839 µg/mL); effect on mycolic acid biosynthesis [11]: inhibited mycolic acid biosynthesis; time to complete elimination of parent ([9]; glutathione conjugation): ≤ 6 min
CCOC(=O)c1c(NC(=O)c2c(F)c(F)c(F)c(F)c2F)sc(C(N)=O)c1C [TP4, reference compound] |  |  | 4.3 µM | 0.03 µM (≈ 0.0127 µg/mL) | 0.26 µM (≈ 0.11 µg/mL) |  |  |  |  |  | >50 mLmin/g | 3.4 |  | 13 mLmin/g | solubility kinetic (physchem [1]; water, kinetic from dmso stock): 1.1 µM (≈ 0.465 µg/mL); effect on mycolic acid biosynthesis [11]: inhibited mycolic acid biosynthesis
